Laboratory results taken from PubChem BioAssay AID1963873 (Molecular Pharmacology Branch, DTP, NCI, 2024).

Test system: 276233-004-R-J1-PDC KRAS spheroids with HUVEC/MSC, viability
Assay: Anticancer human tumor 276233-004-R-J1-PDC patient-derived colon adenocarcinoma cell line growth inhibition [KRAS2]
Conditions: for IC50: curve of first compound; for viability, T/C: stronger effect = lower value; active = viability on the fitted dose curve at most 10% of control; inactive = the rest
In short: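 KRAS-mutant tumor cells were grown as spheroids with HUVEC endothelial cells and human MSCs as stroma. Targeted agents were tested alone and with KRAS pathway inhibitors. Doses started at or near clinical Cmax, or 10 microM, descending half-log.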

[1] = second compound 0.1 µM, first compound 0.0316 µM
[2] = second compound 0.1 µM, first compound 0.1 µM
[3] = second compound 0.1 µM, first compound 0.316 µM
[4] = second compound 0.1 µM, first compound 1 µM
[5] = second compound 0.1 µM, first compound 3.16 µM
[6] = second compound 0.1 µM, first compound 10 µM
[7] = second compound 0.316 µM, first compound 0.0316 µM
[8] = second compound 0.316 µM, first compound 0.1 µM
[9] = second compound 0.316 µM, first compound 0.316 µM
[10] = second compound 0.316 µM, first compound 1 µM
[11] = second compound 0.316 µM, first compound 3.16 µM
[12] = second compound 0.316 µM, first compound 10 µM
[13] = second compound 1 µM, first compound 0.0316 µM
[14] = second compound 1 µM, first compound 0.1 µM
[15] = second compound 1 µM, first compound 0.316 µM
[16] = second compound 1 µM, first compound 1 µM
[17] = second compound 1 µM, first compound 3.16 µM
[18] = second compound 1 µM, first compound 10 µM
[19] = second compound 3.16 µM, first compound 0.0316 µM
[20] = second compound 3.16 µM, first compound 0.1 µM
[21] = second compound 3.16 µM, first compound 0.316 µM
[22] = second compound 3.16 µM, first compound 1 µM
[23] = second compound 3.16 µM, first compound 3.16 µM
[24] = second compound 3.16 µM, first compound 10 µM
[25] = second compound 10 µM, first compound 0.0316 µM
[26] = second compound 10 µM, first compound 0.1 µM
[27] = second compound 10 µM, first compound 0.316 µM
[28] = second compound 10 µM, first compound 1 µM
[29] = second compound 10 µM, first compound 3.16 µM
[30] = second compound 10 µM, first compound 10 µM
[31] = second compound 0.1 µM, first compound 0.00316 µM
[32] = second compound 0.1 µM, first compound 0.01 µM
[33] = second compound 0.316 µM, first compound 0.00316 µM
[34] = second compound 0.316 µM, first compound 0.01 µM
[35] = second compound 1 µM, first compound 0.00316 µM
[36] = second compound 1 µM, first compound 0.01 µM
[37] = second compound 3.16 µM, first compound 0.00316 µM
[38] = second compound 3.16 µM, first compound 0.01 µM
[39] = second compound 10 µM, first compound 0.00316 µM
[40] = second compound 10 µM, first compound 0.01 µM
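Also: cells exposed to agents for seven days before viability read.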
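For viability, T/C in this document: 100% = DMSO vehicle control wells and lower values mean fewer viable cells.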

CC(C)NCC(C(=O)N1CCN(c2ncnc3c2C(C)CC3O)CC1)c1ccc(Cl)cc1 (stereo not given) + COc1cc2nc(C)nc(NC(C)c3cc(N)cc(C(F)(F)F)c3)c2cc1OC1CCOC1
active: viability, T/C [28] 7.24% | viability, T/C [29] 4.57% | viability, T/C [30] 6.8%
1.78 µM: IC50 (second compound 0.1 µM)
1.24 µM: IC50 (second compound 1 µM)
1.11 µM: IC50 (second compound 0.316 µM)
inactive: viability, T/C [1] 75.5% | viability, T/C [2] 79.9% | viability, T/C [3] 73.6% | viability, T/C [4] 56.6% | viability, T/C [5] 35.8% | viability, T/C [6] 51.2% | viability, T/C [7] 89.3% | viability, T/C [8] 78.6% | viability, T/C [9] 62.7% | viability, T/C [10] 57.8% | viability, T/C [11] 32.6% | viability, T/C [12] 38.8% | viability, T/C [13] 67.4% | viability, T/C [14] 76.3% | viability, T/C [15] 70.3% | viability, T/C [16] 55.4% | viability, T/C [17] 26.2% | viability, T/C [18] 27.4% | viability, T/C [19] 80.7% | viability, T/C [20] 75.6% | viability, T/C [21] 78.2% | viability, T/C [22] 37.3% | viability, T/C [23] 29.9% | viability, T/C [24] 38.8% | viability, T/C [25] 35.6% | viability, T/C [26] 16.1% | viability, T/C [27] 13.9%
0.7 µM: IC50 (second compound 3.16 µM)
< 0.0316 µM: IC50 (second compound 10 µM)

CCN1CCN(Cc2ccc(Nc3ncc(F)c(-c4cc(F)c5nc(C)n(C(C)C)c5c4)n3)nc2)CC1 + COc1cc2nc(C)nc(NC(C)c3cc(N)cc(C(F)(F)F)c3)c2cc1OC1CCOC1
inactive: viability, T/C [31] 89.2% | viability, T/C [32] 98.1% | viability, T/C [1] 88.7% | viability, T/C [2] 84.5% | viability, T/C [3] 91.5% | viability, T/C [4] 115% | viability, T/C [33] 110% | viability, T/C [34] 80.9% | viability, T/C [7] 82.4% | viability, T/C [8] 107% | viability, T/C [9] 98.8% | viability, T/C [10] 86.8% | viability, T/C [35] 105% | viability, T/C [36] 88% | viability, T/C [13] 101% | viability, T/C [14] 80.2% | viability, T/C [15] 96.9% | viability, T/C [16] 102% | viability, T/C [37] 82.2% | viability, T/C [38] 96.5% | viability, T/C [19] 74.1% | viability, T/C [20] 81.1% | viability, T/C [21] 89.4% | viability, T/C [22] 74.3% | viability, T/C [39] 47.1% | viability, T/C [40] 44.4% | viability, T/C [25] 26% | viability, T/C [26] 19.7%
> 1 µM: IC50 (second compound 0.1 µM) | IC50 (second compound 0.316 µM) | IC50 (second compound 1 µM) | IC50 (second compound 3.16 µM)
< 0.00316 µM: IC50 (second compound 10 µM)
active: viability, T/C [27] 4.33% | viability, T/C [28] 2.22%

CCNC(=O)CC1N=C(c2ccc(Cl)cc2)c2cc(OC)ccc2-n2c(C)nnc21 (stereo not given) + COc1cc2nc(C)nc(NC(C)c3cc(N)cc(C(F)(F)F)c3)c2cc1OC1CCOC1
> 10 µM: IC50 (second compound 0.1 µM)
2.46 µM: IC50 (second compound 0.316 µM)
1.19 µM: IC50 (second compound 1 µM)
active: viability, T/C [30] 8.17%
2.34 µM: IC50 (second compound 3.16 µM)
inactive: viability, T/C [1] 101% | viability, T/C [2] 67.1% | viability, T/C [3] 61.4% | viability, T/C [4] 55% | viability, T/C [5] 50.4% | viability, T/C [6] 49.2% | viability, T/C [7] 94.6% | viability, T/C [8] 80.2% | viability, T/C [9] 69.5% | viability, T/C [10] 54.5% | viability, T/C [11] 45.7% | viability, T/C [12] 48.2% | viability, T/C [13] 84.7% | viability, T/C [14] 77.7% | viability, T/C [15] 60.3% | viability, T/C [16] 42.7% | viability, T/C [17] 44% | viability, T/C [18] 34.4% | viability, T/C [19] 62.3% | viability, T/C [20] 69.7% | viability, T/C [21] 62.2% | viability, T/C [22] 50.8% | viability, T/C [23] 46% | viability, T/C [24] 43.2% | viability, T/C [25] 31.6% | viability, T/C [26] 33.9% | viability, T/C [27] 22.6% | viability, T/C [28] 12.9% | viability, T/C [29] 11.1%
< 0.0316 µM: IC50 (second compound 10 µM)

Cn1ncnc1[C@H]1c2n[nH]c(=O)c3cc(F)cc(c23)N[C@@H]1c1ccc(F)cc1 + COc1cc2nc(C)nc(NC(C)c3cc(N)cc(C(F)(F)F)c3)c2cc1OC1CCOC1
< 0.000316 µM: IC50 (second compound 10 µM)
> 0.1 µM: IC50 (second compound 0.1 µM) | IC50 (second compound 0.316 µM) | IC50 (second compound 1 µM) | IC50 (second compound 3.16 µM)
inactive: viability, T/C (second compound 0.1 µM, first compound 0.000316 µM) 90% | viability, T/C (second compound 0.1 µM, first compound 0.001 µM) 81% | viability, T/C [31] 76.2% | viability, T/C [32] 87.1% | viability, T/C [1] 89.7% | viability, T/C [2] 76% | viability, T/C (second compound 0.316 µM, first compound 0.000316 µM) 89.1% | viability, T/C (second compound 0.316 µM, first compound 0.001 µM) 96.7% | viability, T/C [33] 84.7% | viability, T/C [34] 83.6% | viability, T/C [7] 87.9% | viability, T/C [8] 83.2% | viability, T/C (second compound 1 µM, first compound 0.000316 µM) 83.3% | viability, T/C (second compound 1 µM, first compound 0.001 µM) 91% | viability, T/C [35] 82.6% | viability, T/C [36] 85% | viability, T/C [13] 87.6% | viability, T/C [14] 79.5% | viability, T/C (second compound 3.16 µM, first compound 0.000316 µM) 85.3% | viability, T/C (second compound 3.16 µM, first compound 0.001 µM) 90.9% | viability, T/C [37] 85.2% | viability, T/C [38] 99.5% | viability, T/C [19] 68.1% | viability, T/C [20] 86.1% | viability, T/C (second compound 10 µM, first compound 0.000316 µM) 33.7% | viability, T/C (second compound 10 µM, first compound 0.001 µM) 40.1% | viability, T/C [39] 29.1% | viability, T/C [40] 34.8% | viability, T/C [25] 29.4% | viability, T/C [26] 27.2%
